Holding throughout (type): cell-based
The test system of assay [1] is five representative oral bacterial species: A. viscosus, L. casei, S. oralis, V. parvula and F. nucleatum. As to the kind of experiment: Example 1: bacterial growth in the supernatant media of healthy biofilm model (absorbance). As to conditions: for % bacterial reduction (A): compound 0.01 wt. %, 48 hours, reduction in absorbance of supernatant media relative to disks treated with media alone. On the procedure:
(§1) 0.5″ Ca^2+-deficient hydroxyapatite (HAP) disks were coated with UV-sterilized human saliva overnight.
(§2) After 1 hour, excess treatment was removed by aspiration and disks were inoculated with 1 ml of bacteria from a continuous culture system at an OD(600) of about 0.2. The continuous culture system was maintained for approximately three months at 37° C. and contained five representative oral bacterial species: A. viscosus, L. casei, S. oralis, V. parvula and F. nucleatum. Previous work has shown this mix to form repeatable biofilms that can serve as a representation of the more complex mix of 500-700 bacterial species found in dental plaque.
(§3) The inoculated scHAP disks were incubated for 48 hours at 37° C. to allow a biofilm to form on them. After 48 hours of biofilm formation, disks were transferred to test tubes containing 1 ml of 0.25% trypsin solution. Disks were incubated at 37° C. with shaking for 45 minutes. The tubes were briefly vortexed to resuspend the bacteria, and the supernatants were then transferred to a fresh 24 well plate. Plates were […] for 2 minutes to pellet any residual HAP flakes and the supernatants were removed to fresh plates so that their absorbance could be measured at 610 nm. All samples were tested in triplicate and the average of the three wells was determined.
In addition to the absorbance of the trypsin-digested resuspended bacterial solution, similar absorbance measurements were also taken of the final supernatant media after the biofilms were allowed to grow for 48 hours.
The effect of 2-deoxy-D-glucose on bacterial growth in the supernatant media in which the biofilms were grown is shown in the table below.

Assay [2] has as its system pathogenic biofilm spiked with P. gingivalis. Put plainly: Example 3: pathogenic biofilm model spiked with P. gingivalis. The settings on record: overall conclusion, no data given. The protocol: A similar experiment was conducted using a pathogenic biofilm model. Biofilms were inoculated as above for the healthy biofilms. Initial bacterial attachment and biofilm formation was allowed to proceed for 4 hours. After the initial 4 hours, each biofilm was spiked with 100 μL of an overnight culture of P. gingivalis. Biofilms were then allowed to grow for another 48 hours prior to trypsin treatment, and absorbance measurements were taken as described above.

Assay [3] concerns biofilm of five representative oral bacterial species: A. viscosus, L. casei, S. oralis, V. parvula and F. nucleatum. Put plainly: Example 1: healthy biofilm formation on saliva-coated HAP disks (absorbance at 610 nm after trypsin). The settings on record: for biofilm inhibition (in words): 0.01 wt. %, Example 1; for % biofilm inhibition (B) / % biofilm inhibition efficiency (C): compound 0.01 wt. %; for % biofilm inhibition (B): 48 hours biofilm, reduction in absorbance relative to disks treated with media alone; for % biofilm inhibition efficiency (C): C=B/A×100%. On the procedure: as §1, §2, §3

Assay [4] has as its system biofilm of Actinomyces naeslundii (ATCC 43146), Lactobacillus casei (ATCC 334), Streptococcus oralis (ATCC 35037), Veillonella parvula (ATCC 17745) and …. As to the kind of experiment: Example 2: biofilm formation on hydroxyapatite discs (safranine staining, absorbance at 492 nm). As to conditions: for biofilm inhibition (in words): 0.01 wt. %, Example 2; for % biofilm inhibition: compound 0.01 wt. %, 24 hours, safranine, absorbance at 492 nm. The protocol:
(§4) A similar test protocol to Example 1 was performed and tested for its effect in the inhibition of planktonic growth and inhibition of biofilm formation
(§5) The species used for biofilm formation were: Actinomyces naeslundii (ATCC 43146). Lactobacillus casei (ATCC 334), Streptococcus oralis (ATCC 35037), Veillonella parvula (ATCC 17745) and Fusobacterium nucleatum (ATCC 10953). Strains were grown under anaerobic conditions at 37° C. for 72 hours. All the bacteria were grown on an anaerobic blood agar.
(§6) The formula for the anaerobic blood agar was as follows: 52 g/l Brain Heart Infusion Agar (DIFCO), and after autoclaving the following products are added: 1 ml/l baemin from a solution 5 mg/ml, 1 ml/l of vitamin K1 from a solution 100 μg/ml and 50 ml of horse blood. A 24 well microtiter for cell culture (Nalgene Nunc International, Denmark) was used to generate in vitro dental biofilms.
(§7) Wells were filled with 800 μl of the mucin growth medium (MGM), a modification of the medium used by Kinniment et al. (Kinniment, S. L., Wimpenny. J. W., Adams, D., and Marsh, P. D. (1996) Development of a steady-state oral microbial biofilm community using the constant-depth film fermenter. Microbiology 142 (Pt 3): 631-638) which presents a high concentration of proteins: 2.5 g/l mucin, 5 g/l Heart Infusion Broth (DIFCO), 2.0 g/l sodium bicarbonate, 1.0 g/l yeast extract and 0.1 g/l cysteine and 4 ml resazurin from a solution 25 mg/100 ml.
The pH is adjusted to 7.4 prior to autoclaving. After autoclaving the following products was added: 1 ml/l haemin from a solution 5 mg/ml and 1 mL/l of vitamin K1 from a solution 100 μg/ml. Sterile hydroxyapatite discs of 7 mm×1.8 mm (Clarkson Inc., USA) was later placed into the wells. In order to form the acquired pellicle the discs were allowed to stay at least 60 hours in contact with the medium under anaerobic conditions prior inoculation. This period of pre-incubation allows checking for possible contaminations and adjusts the final pH to 7.5.
Each of the strains grown on agar was resuspended in MGM medium until reach a turbidity of a McFarlan 3 (approximately 10^8 CFU/ml). Finally, 1 ml of each suspension from the different strains was mixed and 50 μl of this suspension was added into each of the wells in the microtiter plate. Microtiter plates were incubated under anaerobic conditions at 37° C. in an anaerobic chamber. A control of growth was performed in parallel. […]
(§8) After 24 hours planktonic phase was saved to measure growth at OD600 and hydroxyapatite disks were washed with sterile PBS and stained with safranine 0.1% for 15 minutes. […] Absorbance at 492 nm measures the amount of safranine retained by the biofilm.

The subject of assay [5] is Actinomyces naeslundii (ATCC 43146), Lactobacillus casei (ATCC 334), Streptococcus oralis (ATCC 35037), Veillonella parvula (ATCC 17745) and Fusobacterium …. As to the kind of experiment: Example 2: planktonic growth (OD600) in healthy biofilm model. The settings on record: for % planktonic growth inhibition: compound 0.01 wt. %, 24 hours, OD600. On the procedure:
as §4, §5, §6, §7
The pH is adjusted to 7.4 prior to autoclaving. After autoclaving the following products was added: 1 ml/l haemin from a solution 5 mg/ml and 1 mL/l of vitamin K1 from a solution 100 μg/ml. Sterile hydroxyapatite discs of 7 mm×1.8 mm (Clarkson Inc., USA) was later placed into the wells. […]
as §8

Some results are limits rather than exact numbers.

Turning to `CCCCCCCCCCCCCCCC[n+]1ccccc1` [CPC, cetylpyridinium chloride], the “% bacterial reduction (A)” value in assay [1] is recorded as 65.44%.

As to `O=C[C@H](F)[C@@H](O)[C@H](O)[C@H](O)CO` [2-fluoro-2-deoxy-D-glucose], the “inhibition of oral biofilm formation (in words)” value in assay [2] is reported as “very good inhibitors of oral biofilm formation”. Also, in assay [3], the “biofilm inhibition (in words)” value was “effective and efficient inhibitor of biofilm formation”; the “% biofilm inhibition (B)” value was determined as 46.50%; the “% biofilm inhibition efficiency (C)” value was >>>1000%. Also, in assay [1], the “% bacterial reduction (A)” value turned out to be 0.00%.

Consider `N[C@H](C=O)[C@@H](O)[C@H](O)[C@H](O)CO` [D-mannosamine, 2-amino-2-deoxy-D-mannose], for which, in assay [4], the “biofilm inhibition (in words)” value is reported as “effective inhibition of biofilm formation” and the “% biofilm inhibition” value is on record as 34.01%. Besides, in assay [5], the “% planktonic growth inhibition” value is 0.00%.

With “Benzalkonium chloride [reference compound]”, in assay [3], the “% biofilm inhibition (B)” value amounted to 52.58% and the “% biofilm inhibition efficiency (C)” value was found to be 59.61%. In addition, in assay [1], the “% bacterial reduction (A)” value is listed as 88.21%.

For the compound `O=CC[C@@H](O)[C@H](O)[C@H](O)CO` [2-deoxy-D-glucose], in assay [3], the “% biofilm inhibition (B)” value is recorded as 30.54% and the “% biofilm inhibition efficiency (C)” value is 311.31%. The “% bacterial reduction (A)” value in assay [1] came to 9.81%.

Consider `C[C@@H](O)[C@@H](O)[C@H](O)[C@@H](O)C=O` [6-deoxy-D-glucose], for which the “inhibition of oral biofilm formation (in words)” value in assay [2] is reported as “very good inhibitors of oral biofilm formation”. Also, in assay [3], the “biofilm inhibition (in words)” value is “effective and efficient inhibitor of biofilm formation”; the “% biofilm inhibition (B)” value is 25.33%; the “% biofilm inhibition efficiency (C)” value is listed as 1644.81%. In addition, in assay [1], the “% bacterial reduction (A)” value was found to be 1.54%.

In the case of `Cl.NCC(O)CCC(N)C(=O)O` (racemic) [DL-5-hydroxylysine HCl, reference compound], in assay [4], the “biofilm inhibition (in words)” value is “minimal biofilm inhibition” and the “% biofilm inhibition” value came to 5.91%. In assay [5] (0.01 wt. %, Example 2), the “planktonic growth inhibition (in words)” value is given as “no planktonic growth inhibition”. The “% planktonic growth inhibition” value in assay [5] is given as 0.00%. In assay [3], the “biofilm inhibition (in words)” value is “negligible biofilm inhibition”, the “% biofilm inhibition (B)” value is given as 5.85% and the “% biofilm inhibition efficiency (C)” value came out at 27.27%. For the same compound, the “bacterial reduction (in words)” value in assay [1] (0.01 wt. %, Example 1) is given as “significant bacterial reduction”. Also, the “% bacterial reduction (A)” value in assay [1] was 21.45%.

Turning to `Oc1cc(Cl)ccc1Oc1ccc(Cl)cc1Cl` [Triclosan], the “% bacterial reduction (A)” value in assay [1] was 85.63%.

Source of the values: patent US11471394B2, “Oral care compositions containing deoxy sugar antimetabolites” (Colgate-Palmolive Company, priority 2013, dated 2022).
